Patent US20230075779A1, “METHODS AND COMPOSITIONS FOR TREATING CANCER OR VIRAL INFECTION WITH A PLA2G2D ANTAGONIST” (Apeximmune Therapeutics Inc., priority 2020, published 2023)
“Also recorded” adds a separate entry of the source.

Assays:
PLA2G2D = molecular target: T1, PLA2G2D (Homo sapiens, UniProt Q9UNK4); assay: Reversal of PLA2G2D-Fc induced suppression of T cell proliferation in PBMC culture by sPLA2 inhibitor; assay type: cell-based; conditions: 0-25 μM inhibitor, PBMC culture with wild type PLA2G2D-Fc
T1 sequence (Q9UNK4 21-145): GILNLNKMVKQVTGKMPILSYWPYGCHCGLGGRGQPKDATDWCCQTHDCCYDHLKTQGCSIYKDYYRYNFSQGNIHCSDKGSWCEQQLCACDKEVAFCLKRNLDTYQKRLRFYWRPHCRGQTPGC

primary human T cells = assay: Binding of PLA2G2D-Fc to resting and activated primary human T cells (FACS); conditions: 0-10 μg/ml
Procedure: To determine whether PLA2G2D elicits immune suppression by directly binding to T cells in vitro, the level of PLA2G2D binding was assessed on resting and activated primary human T cells. T cells were isolated from PBMC using a Pan T Cell Isolation Kit (Miltenyi) and cultured in the presence or absence of beads loaded with anti-human CD2, CD3, and CD28 antibodies (human T Cell Activation/Expansion Kit, Miltenyi) in RPMI for 48 hours at 37° C. Stimulated or unstimulated T cells were then harvested, washed, and incubated with 0-10 μg/ml of human PLA2G2D-Fc protein or human IgG1-Fc protein for 30 minutes at 4° C. Cells were washed 3 times with PBS and then stained with Alexa 488-conjugated goat anti-human IgG1 antibodies (Invitrogen) for 30 minutes at 4° C., washed, then analyzed by FACS.

isolated T cells = assay: Proliferation of isolated T cell cultures with anti-CD3/anti-CD28 stimulation; assay type: cell-based, human
Procedure: To evaluate the effect of PLA2G2D protein on isolated T cells, […] protein as well as with 1 μg/ml anti-CD3 (OKT3) and 0.2 μg/ml anti-CD28 (CD28.2) in 100 μl of PBS. The following day, plates were washed twice with PBS before addition of T cells. T cells were isolated from PBMC using a Pan T Cell Isolation Kit (Miltenyi) and labeled with CFSE as described above. 1×10^5 purified and labeled T cells were added to each well of the coated plate in a final volume of 200 μl RPMI. T cells were allowed to proliferate for 72 hours at 37° C. before supernatants were collected for IFNγ and IL-2 analysis by MSD and proliferation was analyzed by FACS.

[1] = system: CD4+ and CD8+ T cells in PBMC cultures; assay: T cell proliferation in stimulated PBMC culture, plate-immobilized protein; assay type: cell-based, human; conditions: immobilized protein coated at 0-10 μg/ml
Procedure: The effect of human PLA2G2D-Fc on T cell activation was assessed in peripheral blood mononuclear cell (PBMC) or isolated T cell cultures. […] PBMC cultures were incubated for 72 hours at 37° C. before the supernatants were harvested and measured for IFNγ and IL-2 levels using MSD V-plex assays (Meso Scale Discovery). T cell proliferation within the PBMC culture was simultaneously assessed by staining cells with fluorophore-conjugated anti-CD3, anti-CD4, and anti-CD8 antibodies (Biolegend) and Live/Dead Fixable dead cell stain (Molecular Probes), and running on a BD LSRFortessa X-20 flow cytometer (Becton Dickinson). FACS data was analyzed using FlowJo software.
To assess the effect of immobilized PLA2G2D protein on T cell proliferation in PBMC cultures, the same assay was utilized except 100 μl of 0-10 μg/ml human PLA2G2D-Fc or control human IgG1-Fc protein was coated overnight in PBS at 4° C. on 96-well flat bottom plates the day before PBMC were prepared and added along with anti-CD3 and anti-CD28 antibodies.

PBMC cultures = assay: IFNγ and IL-2 levels in stimulated PBMC culture supernatants (MSD V-plex); assay type: cell-based, human; conditions: soluble protein 0-20 μg/ml, 72 hours
Procedure: (§1) The effect of human PLA2G2D-Fc on T cell activation was assessed in peripheral blood mononuclear cell (PBMC) or isolated T cell cultures. PBMC were isolated from leukoreduction system (LRS) chambers from healthy human donors by centrifugation over Ficoll-Paque Plus (GE Life Sciences) and labeled in a 5 μM CFSE solution (Molecular Probes) for 12 min at 37° C. and washed. 2×10^5 labeled PBMC per well of a 96 well round bottom plate were then stimulated with 1 μg/ml anti-CD3 (OKT3, Invitrogen) and 0.2 μg/ml anti-CD28 (CD28.2, Invitrogen) in the presence of soluble 0-20 μg/ml human PLA2G2D-Fc or control human IgG1-Fc protein (Sino Biological) as indicated in a final volume of 200 μl RPMI (Corning). PBMC cultures were incubated for 72 hours at 37° C. before the supernatants were harvested and measured for IFNγ and IL-2 levels using MSD V-plex assays (Meso Scale Discovery). T cell proliferation within the PBMC culture was simultaneously assessed by staining cells with fluorophore-conjugated anti-CD3, anti-CD4, and anti-CD8 antibodies (Biolegend) and Live/Dead Fixable dead cell stain (Molecular Probes), and running on a BD LSRFortessa X-20 flow cytometer (Becton Dickinson). FACS data was analyzed using FlowJo software.

[2] = system: PBMC derived CD4+ and CD8+ T cells; assay: T cell proliferation (CFSE) in anti-CD3/anti-CD28 stimulated PBMC culture, soluble protein; assay type: cell-based, human; conditions: soluble protein 0-20 μg/ml, 72 hours
Procedure: as §1, with “software. […]” for “software.”

CCc1c(C(=O)C(N)=O)c2c(OCC(=O)O)cccc2n1Cc1ccccc1 [LY315920]
reversal of immune suppression induced by PLA2G2D (PLA2G2D): does not rescue immune suppression; also recorded: does not reverse immune suppression

PLA2G2D-Fc: soluble human PLA2G2D-Fc protein (Sino Biological); the immunosuppressive protein studied
binding to activated CD4+ and CD8+ T cells (primary human T cells; stimulated T cells, compared with control human IgG1-Fc): preferentially binds | binding to unstimulated T cells (primary human T cells; unstimulated T cells): to a small degree | proliferation of isolated T cell cultures (isolated T cells; immobilized protein coated at 0-10 μg/ml, 72 hours): dose-dependently suppresses | suppressive effect on isolated T cells (isolated T cells; soluble protein added instead of coated (data not shown)): no suppressive effect | CD4+ and CD8+ T cell proliferation [1]: suppressed | CD4+ and CD8+ T cell proliferation ([1]; listed as PLA2G2D protein): dose-dependently suppresses | levels of IFNγ and IL-2 (PBMC cultures): dose-dependently and significantly decreased | levels of IFNγ and IL-2 (PBMC cultures; listed as PLA2G2D protein): dose-dependently suppresses | CD4+ and CD8+ T cell proliferation [2]: dose-dependently suppresses; also recorded: dose dependently suppressed | CD4+ and CD8+ T cell proliferation ([2]; listed as PLA2G2D protein): dose-dependently suppresses
